Reference: PubChem BioAssay (NCI)
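Each compound was tested at five concentrations against cells in 96-well plates for 48 hours. GI50 = concentration required for 50% inhibition of growth. Definition used: TGI = concentration required for complete inhibition of growth.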 Where a SMILES comes first, the peptide text is derived from it. The star is where a group is joined. Fmoc = O=C(OCC1c2ccccc2-c2ccccc21)*; Boc = CC(C)(C)OC(=O)*

Tests used:
Assay in all cases: NCI anticancer screen, dose series, 48 h
MALME-3M melanoma = system: MALME-3M melanoma
M14 melanoma = system: M14 melanoma
DU-145 prostate = system: DU-145 prostate
MDA-MB-231 breast = system: MDA-MB-231 breast
SNB-75 CNS = system: SNB-75 CNS
TK-10 renal = system: TK-10 renal
UACC-62 melanoma = system: UACC-62 melanoma
CAKI-1 renal = system: CAKI-1 renal
786-0 renal = system: 786-0 renal

Structure (SMILES)	TGI (MALME-3M melanoma) [µM]	TGI (M14 melanoma) [µM]	TGI (DU-145 prostate) [µM]	TGI (MDA-MB-231 breast) [µM]	TGI (SNB-75 CNS) [µM]	TGI (TK-10 renal) [µM]	TGI (UACC-62 melanoma) [µM]	TGI (CAKI-1 renal) [µM]	TGI (786-0 renal) [µM]	GI50 (MALME-3M melanoma) [µM]	GI50 (DU-145 prostate) [µM]	GI50 (MDA-MB-231 breast) [µM]	GI50 (SNB-75 CNS) [µM]	GI50 (TK-10 renal) [µM]	GI50 (UACC-62 melanoma) [µM]	GI50 (CAKI-1 renal) [µM]
CCOC(=O)C(C(=S)Nc1ccccc1)c1nn2c(=O)cc(C)nc2s1 (centres undefined)	53.5	57.1	> 100	70	60	86.8	66.1	84.7	> 100							
COc1ccc(/C=C2\N=C(c3ccccc3)N(N=C3NC(=O)CC(=O)N3)C2=O)cc1	> 100	> 100	> 100	> 100	> 100	> 100	> 100	> 100	> 100							
O=c1oc2cc(O)ccc2c(O)c1C(c1cccnc1)c1c(O)c2ccc(O)cc2oc1=O		> 100	> 100	> 100	> 100	> 100	> 100	> 100	> 100							
N=C(N)SCc1ccc(Cl)cc1Cl (tested in a mixture with another compound)	34.2	26.9	29.8	25	30.9	18.8	28.3	24.2	26.9							
Cc1ccc(-n2[nH]nc(C#N)c2=O)cc1	> 100	> 100	> 100	> 100	> 100	> 100	> 100	> 100	> 100							
COCOc1c(C(O[Si](C)(C)C(C)(C)C)c2cnc(Sc3ccccc3)n2C)ccc(OC)c1OC (centres undefined)	8.93		> 100	3.19	5.77	16.3	3.91	10.1	4.41							
Nc1[nH]c(=S)nc2snnc12	> 100		> 100	> 100	> 100	> 100	> 100	> 100	> 100							
CC1OC(O[C@H]2C3C=CO[C@@H](OC4OC(CO)C(O)C(O)C4O)C3[C@@]3(COC(=O)/C=C/c4ccc(O)cc4)O[C@@H]23)C(O)C(O)C1O (some centres undefined)	> 100	> 100	> 100	> 100	> 100	> 100	> 100	> 100	> 100							
N#CCCC1(CCC#N)CCCCCCCCC(CCC#N)(CCC#N)C(=O)C1=O	> 100	> 100	> 100		> 100	> 100	> 100	> 100	> 100							
Cn1c2ccccc2c2c(=O)[nH]c(=O)[nH]c21	> 100	> 100	> 100	> 100	> 100	> 100	> 100	> 100	> 100							
COC(=O)c1ccc(C)cc1/C=C1\Cc2ccc(C)cc2C1=O	30.1	33.5	39		44	42.4	26.7	94.3	50							
COC(=O)C1CCC(=O)N1C(c1ccc(OC)cc1)c1ccc(OC)cc1 (centres undefined)	> 100	> 100	> 100	> 100	> 100	> 100	> 100	> 100	> 100							
CC(C)(C)c1cc(C2=NN(c3ccccc3)C(c3ccccc3)C2)cc(C(C)(C)C)c1O (centres undefined)	> 100	> 100	> 100	> 100	> 100	> 100	> 100	> 100	> 100							
Cc1cc(NC[C@H](O)[C@H](O)[C@H](O)CO)c(Sc2cc(=O)[nH]c(=O)[nH]2)cc1C	> 62.5	> 62.5	> 62.5	> 62.5	> 62.5	> 62.5	> 62.5	> 62.5	> 62.5							
N#C/C(=C\c1cc(Cl)cc(Cl)c1)c1ccccn1	> 100	> 100	> 100		36	> 100	> 100	> 100	> 100							
CSCCCNC(=O)c1csc(-c2csc(C(CNC(=O)OC(C)(C)C)CNC(=O)OC(C)(C)C)n2)n1		> 100	> 100	> 100	> 100	> 100	40.4	> 100	> 100							
Cc1cc(C)c2c(n1)S(=O)(=O)N(CCCN1CCN(c3cccc(C(F)(F)F)c3)CC1)c1c-2nn(C)c1C	> 100	> 100	> 100	> 100	> 100	> 100	> 100	> 100	> 100							
CN1C(=O)[C@@H]2[C@@H]3c4ccccc4N(S(=O)(=O)C(F)(F)F)[C@@H]3c3[nH]c4ccccc4c3[C@@H]2C1=O			> 100	> 100	> 100	> 100	> 100	> 100	> 100							
CCOC(=O)C1OC(C2(C)OC3(OC4(C=CC3O)OC(C(C)C(=O)C(C)C(O)C(C)CC(C)c3c(Cl)cc(C)c(O)c3C(=O)O)C(C)CC4C)C(C)C2OC)CC1O (centres undefined)	1.81	6.38	5.93	2.96	0.919	7.81	1.25	10.4	4.47							
CCOC(=O)C(Cl)(NC(=O)c1c(F)c(F)c(F)c(F)c1F)C(F)(F)F (centres undefined)	> 100	> 100	> 100	> 100	> 100	> 100	> 100	36.4	> 100							
O=C1/C(=C/c2ccc(Cl)cc2)N=C(c2ccccc2)N1CCc1cccs1	> 100		> 100	98.7	> 100	> 100	63.2	> 100		35.1	42.7	13.6	50.9	27.9	13.8	20.4
CC(C)(C)OC(=O)NCCCCC(NC(=O)OCC1c2ccccc2-c2ccccc21)C(=O)N1CCCC1C(=O)NCC(N)=O (stereo not drawn) (Fmoc-Lys(Boc)-Pro-Gly-NH2; configuration not given here)	34.5	> 100	> 100	> 100	> 100	> 100	> 100	30.1	34.3							
